Earlier results, collected in patent US5866539A, “Method for the control of antibiotic-resistant gram positive bacteria and treatment of infection” (AMBI Inc., priority 1996, dated 1999).
Where no end group is shown, it is not given here.

Test system: staphylococci and enterococci
Conditions: compared to currently used therapeutic agents

| Substance | activity towards staphylococci and enterococci |
| --- | --- |
| Actagardine | only moderate activity |
| mersacidin (CTFTLPGGGGVCTLTSECIC; also: lantibiotic thioether rings, places not given here; UniProt P43683 49-68, looked up) [more recent lanthionine-containing antimicrobial peptide evaluated in the literature] | only moderate activity |
